Data taken from US9914724B2, “C-aryl glycosid derivatives, pharmaceutical composition, preparation process and uses thereof” (SHANGHAI DE NOVO PHARMATECH CO. LTD., priority 2014, dated 2018).

What was measured:
SGLT-2 = target: T1, SGLT-2 (Homo sapiens, UniProt P31639); assay: [14C]-AMG absorption in stable SGLT2 expressing Flp-in CHO cells (SGLT-2 activity screening assay); type: cell-based; conditions: 14C-AMG uptake, 37° C. 1 h, 1% DMSO
T1 sequence (P31639 1-672): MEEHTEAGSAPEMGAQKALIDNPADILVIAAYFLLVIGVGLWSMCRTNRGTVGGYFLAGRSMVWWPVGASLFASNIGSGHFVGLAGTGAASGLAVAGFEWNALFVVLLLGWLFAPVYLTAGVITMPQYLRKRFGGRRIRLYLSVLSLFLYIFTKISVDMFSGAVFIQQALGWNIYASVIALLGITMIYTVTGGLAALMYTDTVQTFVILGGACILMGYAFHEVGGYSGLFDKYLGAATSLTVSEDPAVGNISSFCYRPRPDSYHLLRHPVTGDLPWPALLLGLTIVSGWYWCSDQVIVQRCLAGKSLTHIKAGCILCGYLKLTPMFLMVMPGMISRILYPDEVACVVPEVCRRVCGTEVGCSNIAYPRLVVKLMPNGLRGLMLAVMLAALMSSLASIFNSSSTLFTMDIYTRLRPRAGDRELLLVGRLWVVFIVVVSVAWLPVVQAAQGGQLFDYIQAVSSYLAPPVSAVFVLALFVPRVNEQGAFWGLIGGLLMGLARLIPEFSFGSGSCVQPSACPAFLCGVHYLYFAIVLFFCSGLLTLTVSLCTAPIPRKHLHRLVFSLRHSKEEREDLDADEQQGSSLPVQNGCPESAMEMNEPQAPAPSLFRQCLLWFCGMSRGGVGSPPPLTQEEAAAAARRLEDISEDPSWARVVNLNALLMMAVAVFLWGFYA
Text: (§1) Example 1: [^14C]-AMG Absorption in Stable SGLT1 and SGLT2 Expressing Flp-in CHO Cells (SGLT-1 and SGLT-2 Activity Screening Assay)
(§2) SGLT-1 and SGLT-2 cDNA clones were purchased from OriGene. After sequencing verification, the expression vectors were constructed based on pcDNA5/FRT using conventional molecular biology method. The expression vector was transfected into Flp-in CHO cells using Lipofectamin 2000. The transfected cells were subject hygromycin selection. The single clones of cells were selected by serial dilutions 4-5 weeks after transfection. The expression of SGLT-1 ? SGLT-2 were confirmed by RT-PCR and functional assay and cell line with strong signal was selected for subsequent study.
(§3) Culture of stable SGLT-1 and SGLT-2 expressing Flp-in CHO cell line: the culture media contain F12 medium (Invitrogen), 500 μg/ml hygromycin (Calbiochem) and 10% FBS (Invitrogen). Upon 80% confluency, the cells in the T75 flask were washed three times with PBS (Invitrogen), and 5 mL of Trpsin-EDTA solution (Invitrogen) was then added. The flask was gently rotated so that all the cells were submerged in the digestion solution. After the cells detach, 10 mL of culture medium was added and single cell suspension was prepared by pipetting up and down. The cell concentration was adjusted to 3×10^5/mL, 100 μL/well was added onto clear bottom 96-well plate (Corning).
(§4) The cells were ready for absorption assay once they attached after overnight culture. 12 h after cell plating, the cells were washed once with 150 μL/well absorption solution KRH-NMG (120 mM NMG, 4.7 mM KCl, 1.2 mM MgCl2, 2.2 mM CaCl2, 10 mM HEPES, pH 7.4 1 mM Tris). The solution was then removed from the well. 2.5 μCi/mL ^14C labeled AMG (PerkinElmer) Buffer KRH-Na+ (120 mM NaCl, 4.7 mM KCl, 1.2 mM MgCl2, 2.2 mM CaCl2, 10 mM HEPES, pH 7.4 1 mM Tris) was added at […] after washing with Buffer KRH-Na+ and KRH-NMG. The corresponding compound I was immediately added at 5 μL/well, ensuring the concentration of Dimethyl Sulfoxide was 1% (v/v). The plate was subsequently incubated at 37° C. for 1 h, after which 150 μL of ice cold wash buffer (120 mM NaCl, 4.7 mM KCl, 1.2 mM MgCl2, 2.2 mM CaCl2, 10 mM HEPES, 0.5 mM phlorizin, pH 7.4 1 mM Tris) was immediately added to terminate the reaction. Each well was washed three times with wash buffer and finally the solution was removed. Caution was taken to avoid cell detachment during the procedure. 20 μL/well of Lysis Buffer (0.1 mM NaOH) was added, the plate was vortexed at 900 rpm for 5 min. 80 μL/well of scintillation solution Microsint40 was added, and vortexed at 900 rpm for 5 min. The radioactivity was assayed using MicroBeta Trilux (PerkinElmer). The data was analyzed and IC50 of the compounds was calculated using XL-fit software.

SGLT-1 = target: T2, SGLT-1 (Homo sapiens, UniProt P13866); assay: [14C]-AMG absorption in stable SGLT1 expressing Flp-in CHO cells (SGLT-1 activity screening assay); type: cell-based; conditions: 14C-AMG uptake, 37° C. 1 h, 1% DMSO
T2 sequence (P13866 1-664): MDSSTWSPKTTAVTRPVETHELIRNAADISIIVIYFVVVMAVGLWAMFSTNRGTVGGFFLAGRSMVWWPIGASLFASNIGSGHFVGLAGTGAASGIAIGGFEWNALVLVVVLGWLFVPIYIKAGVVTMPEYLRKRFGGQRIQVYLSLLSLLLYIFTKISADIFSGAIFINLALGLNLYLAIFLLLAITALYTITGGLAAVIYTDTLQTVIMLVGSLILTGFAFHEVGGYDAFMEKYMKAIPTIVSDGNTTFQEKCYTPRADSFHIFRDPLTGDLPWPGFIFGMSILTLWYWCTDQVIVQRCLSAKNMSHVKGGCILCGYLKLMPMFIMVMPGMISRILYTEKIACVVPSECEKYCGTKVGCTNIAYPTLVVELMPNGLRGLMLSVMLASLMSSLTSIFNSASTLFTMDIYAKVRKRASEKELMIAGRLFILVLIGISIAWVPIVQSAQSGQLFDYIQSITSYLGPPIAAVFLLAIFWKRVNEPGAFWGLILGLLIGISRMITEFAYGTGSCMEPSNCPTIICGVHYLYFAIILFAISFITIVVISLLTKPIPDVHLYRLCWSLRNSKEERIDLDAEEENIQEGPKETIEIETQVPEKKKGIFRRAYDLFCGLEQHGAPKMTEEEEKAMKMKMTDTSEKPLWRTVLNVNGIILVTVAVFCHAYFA
Text: as §1, §2, §3, §4

Row | Structure (SMILES) | IC50 (SGLT-2) [nM] | IC50 (SGLT-1) [nM]
1 | OC[C@H]1O[C@@H](c2ccc(Cl)c(Cc3ccc(OCc4cc5cccc(F)c5o4)cc3)c2)[C@H](O)[C@@H](O)[C@@H]1O [Compound I-10, (2S,3R,4R,5S,6R)-2-(4-chloro-3-(4-((7-fluorobenzofuran-2-yl)methoxy)benzyl)phenyl)-6-(hydroxymethyl)tetrahydro-2H-pyran-3,4,5-triol] | 12 | 444
2 | OC[C@H]1O[C@@H](c2ccc(Cl)c(Cc3ccc(OCc4cc5ccccc5o4)c(F)c3)c2)[C@H](O)[C@@H](O)[C@@H]1O [Compound I-11, (2S,3R,4R,5S,6R)-2-(3-(4-(benzofuran-2-ylmethoxy)-3-fluorobenzyl)-4-chlorophenyl)-6-(hydroxymethyl)tetrahydro-2H-pyran-3,4,5-triol] | 23 | 2540
3 | OC[C@H]1O[C@@H](c2ccc(Cl)c(Cc3ccc(OCC4Cc5ccccc5O4)c(F)c3)c2)[C@H](O)[C@@H](O)[C@@H]1O (stereo partly drawn) [Compound I-12, (2S,3R,4R,5S,6R)-2-(4-chloro-3-(4-((2,3-dihydrobenzofuran-2-yl)methoxy)-3-fluorobenzyl)phenyl)-6-(hydroxymethyl)tetrahydro-2H-pyran-3,4,5-triol] | 11 | 1070
4 | N#Cc1ccc([C@@H]2O[C@H](CO)[C@@H](O)[C@H](O)[C@H]2O)cc1Cc1ccc(OCC2Cc3ccccc3O2)cc1 (stereo partly drawn) [Compound I-28, 2-(4-((2,3-dihydrobenzofuran-2-yl)methoxy)benzyl)-4-((2S,3R,4R,5S,6R)-3,4,5-trihydroxy-6-(hydroxymethyl)tetrahydro-2H-pyran-2-yl)benzonitrile] | > 2000 | 41400
5 | COc1ccc([C@@H]2O[C@H](CO)[C@@H](O)[C@H](O)[C@H]2O)cc1Cc1ccc(OCC2Cc3ccccc3O2)cc1 (stereo partly drawn) [Compound I-29, (2S,3R,4R,5S,6R)-2-(3-(4-((2,3-dihydrobenzofuran-2-yl)methoxy)benzyl)-4-methoxyphenyl)-6-(hydroxymethyl)tetrahydro-2H-pyran-3,4,5-triol] | 59 | 220

Other lines, results leading:

Row | IC50 (SGLT-2) [nM] | IC50 (SGLT-1) [nM] | Structure (SMILES)
6 | 13 | 4300 | OC[C@H]1O[C@@H](c2ccc(F)c(Cc3ccc(OCC4Cc5ccccc5O4)cc3)c2)[C@H](O)[C@@H](O)[C@@H]1O (stereo partly drawn) [Compound I-21, (2S,3R,4R,5S,6R)-2-(3-(4-((2,3-dihydrobenzofuran-2-yl)methoxy)benzyl)-4-fluorophenyl)-6-(hydroxymethyl)tetrahydro-2H-pyran-3,4,5-triol]
7 | 3 | 301 | OC[C@H]1O[C@@H](c2ccc(Cl)c(Cc3ccc(OC[C@@H]4Cc5ccccc5O4)cc3)c2)[C@H](O)[C@@H](O)[C@@H]1O [Compound I-23, (2S,3R,4R,5S,6R)-2-(4-chloro-3-(4-(((S)-2,3-dihydrobenzofuran-2-yl)methoxy)benzyl)phenyl)-6-(hydroxymethyl)tetrahydro-2H-pyran-3,4,5-triol]
8 | 4.3 | 1190 | OC[C@H]1O[C@@H](c2ccc(Cl)c(Cc3ccc(OC[C@H]4Cc5ccccc5O4)cc3)c2)[C@H](O)[C@@H](O)[C@@H]1O [Compound I-24, (2S,3R,4R,5S,6R)-2-(4-chloro-3-(4-(((R)-2,3-dihydrobenzofuran-2-yl)methoxy)benzyl)phenyl)-6-(hydroxymethyl)tetrahydro-2H-pyran-3,4,5-triol]
9 | 4.1 | 180 | Cc1ccc([C@@H]2O[C@H](CO)[C@@H](O)[C@H](O)[C@H]2O)cc1Cc1ccc(OCC2Cc3ccccc3O2)cc1 (stereo partly drawn) [Compound I-25, (2S,3R,4R,5S,6R)-2-(3-(4-((2,3-dihydrobenzofuran-2-yl)methoxy)benzyl)-4-methylphenyl)-6-(hydroxymethyl)tetrahydro-2H-pyran-3,4,5-triol]
10 | 2.7 | 95 | Cc1ccc([C@@H]2O[C@H](CO)[C@@H](O)[C@H](O)[C@H]2O)cc1Cc1ccc(OC[C@@H]2Cc3ccccc3O2)cc1 [Compound I-26, (2S,3R,4R,5S,6R)-2-(3-(4-(((S)-2,3-dihydrobenzofuran-2-yl)methoxy)benzyl)-4-methylphenyl)-6-(hydroxymethyl)tetrahydro-2H-pyran-3,4,5-triol]
